Results published in ChEMBL document CHEMBL5678818, “Discovery of potent SOS1 inhibitors that block RAS activation via disruption of the RAS-SOS1 interaction” (Proc Natl Acad Sci U S A, 2019).

How the values were obtained:
[1] = target: Casein kinase II subunit alpha (Homo sapiens) (UniProt P68400); test: Inhibition of CSNK2A1 (unknown origin) assessed as residual activity at 100 nM by KINOMEscan analysis relative to control
[2] = target: Hepatocyte growth factor receptor (Homo sapiens) (UniProt P08581); test: Inhibition of MET (unknown origin) assessed as residual activity at 100 nM by KINOMEscan analysis relative to control
[3] = target: T1, Tyrosine-protein kinase ITK/TSK (Homo sapiens) (UniProt Q08881); test: Inhibition of ITK (unknown origin) assessed as residual activity at 100 nM by KINOMEscan analysis relative to control
T1 sequence (whole entry): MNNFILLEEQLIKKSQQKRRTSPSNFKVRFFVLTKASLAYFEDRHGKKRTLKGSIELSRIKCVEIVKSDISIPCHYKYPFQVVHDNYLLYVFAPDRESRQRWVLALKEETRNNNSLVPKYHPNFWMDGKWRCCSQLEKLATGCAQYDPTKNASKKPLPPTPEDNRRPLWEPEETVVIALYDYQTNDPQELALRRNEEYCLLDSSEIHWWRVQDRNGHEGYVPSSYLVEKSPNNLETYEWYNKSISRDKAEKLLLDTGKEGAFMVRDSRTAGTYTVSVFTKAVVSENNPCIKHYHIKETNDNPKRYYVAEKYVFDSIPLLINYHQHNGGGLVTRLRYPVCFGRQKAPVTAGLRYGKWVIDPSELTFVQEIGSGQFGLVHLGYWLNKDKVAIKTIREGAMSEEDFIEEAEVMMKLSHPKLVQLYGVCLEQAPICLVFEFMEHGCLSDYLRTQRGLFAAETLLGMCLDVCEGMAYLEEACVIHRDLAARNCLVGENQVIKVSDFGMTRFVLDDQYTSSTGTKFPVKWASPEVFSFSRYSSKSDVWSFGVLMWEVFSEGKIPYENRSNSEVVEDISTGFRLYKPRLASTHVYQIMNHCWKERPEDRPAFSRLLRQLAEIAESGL

[4] = target: Serine/threonine-protein kinase MRCK alpha (Homo sapiens) (UniProt Q5VT25); test: Inhibition of MRCKA (unknown origin) assessed as residual activity at 100 nM by KINOMEscan analysis relative to control
[5] = tested on: Serine/threonine-protein kinase B-raf (Homo sapiens), P15056 [V600E]; test: Inhibition of BRAF V600E mutant (unknown origin) assessed as residual activity at 100 nM by KINOMEscan analysis relative to control
[6] = target: Aurora kinase B (Homo sapiens) (UniProt Q96GD4); test: Inhibition of AURKB (unknown origin) assessed as residual activity at 100 nM by KINOMEscan analysis relative to control
[7] = target: Mitotic checkpoint serine/threonine-protein kinase BUB1 (Homo sapiens) (UniProt O43683); test: Inhibition of BUB1 (unknown origin) assessed as residual activity at 100 nM by KINOMEscan analysis relative to control
[8] = target: Protein kinase C delta type (Homo sapiens) (UniProt Q05655); test: Inhibition of PRKCD (unknown origin) assessed as residual activity at 100 nM by KINOMEscan analysis relative to control
[9] = target: T2, Serine/threonine-protein kinase RIO3 (Homo sapiens) (UniProt O14730); test: Inhibition of RIOK3 (unknown origin) assessed as residual activity at 100 nM by KINOMEscan analysis relative to control
T2 sequence (whole entry): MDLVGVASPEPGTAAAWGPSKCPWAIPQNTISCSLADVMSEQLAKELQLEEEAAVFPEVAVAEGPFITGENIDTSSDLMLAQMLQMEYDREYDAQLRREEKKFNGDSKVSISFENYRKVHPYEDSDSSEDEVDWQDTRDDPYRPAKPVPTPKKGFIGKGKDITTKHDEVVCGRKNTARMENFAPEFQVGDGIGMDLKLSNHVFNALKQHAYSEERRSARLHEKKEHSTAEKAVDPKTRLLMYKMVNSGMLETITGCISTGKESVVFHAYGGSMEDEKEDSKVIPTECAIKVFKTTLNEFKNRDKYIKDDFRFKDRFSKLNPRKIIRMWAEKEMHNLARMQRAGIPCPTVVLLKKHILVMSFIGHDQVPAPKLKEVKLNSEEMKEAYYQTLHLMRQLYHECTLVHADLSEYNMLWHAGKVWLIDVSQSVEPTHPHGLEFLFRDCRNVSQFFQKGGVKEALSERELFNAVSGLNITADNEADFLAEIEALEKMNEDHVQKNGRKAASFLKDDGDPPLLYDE

[10] = target: T3, Serine/threonine-protein kinase Nek5 (Homo sapiens) (UniProt Q6P3R8); test: Inhibition of NEK5 (unknown origin) assessed as residual activity at 100 nM by KINOMEscan analysis relative to control
T3 sequence (whole entry): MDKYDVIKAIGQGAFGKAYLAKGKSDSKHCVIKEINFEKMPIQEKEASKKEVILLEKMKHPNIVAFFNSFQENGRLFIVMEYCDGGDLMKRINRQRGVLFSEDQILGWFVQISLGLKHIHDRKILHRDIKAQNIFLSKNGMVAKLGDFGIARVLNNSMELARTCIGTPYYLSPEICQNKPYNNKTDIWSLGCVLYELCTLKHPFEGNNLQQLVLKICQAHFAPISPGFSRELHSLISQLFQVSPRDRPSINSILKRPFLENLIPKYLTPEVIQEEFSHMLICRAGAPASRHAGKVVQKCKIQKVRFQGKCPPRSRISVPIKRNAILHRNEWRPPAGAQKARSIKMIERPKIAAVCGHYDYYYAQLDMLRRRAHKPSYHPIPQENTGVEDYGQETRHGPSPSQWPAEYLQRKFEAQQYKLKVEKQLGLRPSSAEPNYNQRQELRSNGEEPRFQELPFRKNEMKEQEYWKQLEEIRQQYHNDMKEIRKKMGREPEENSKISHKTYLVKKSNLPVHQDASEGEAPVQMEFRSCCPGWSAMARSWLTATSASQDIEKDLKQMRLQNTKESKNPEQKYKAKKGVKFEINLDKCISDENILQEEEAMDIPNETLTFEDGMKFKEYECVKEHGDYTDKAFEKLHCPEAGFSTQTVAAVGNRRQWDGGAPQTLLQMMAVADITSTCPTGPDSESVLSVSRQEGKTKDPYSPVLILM

[11] = target: Serine/threonine-protein kinase 32A (Homo sapiens) (UniProt Q8WU08); test: Inhibition of YANK1 (unknown origin) assessed as residual activity at 100 nM by KINOMEscan analysis relative to control
Sequence of Serine/threonine-protein kinase 32A (Homo sapiens) (Q8WU08 whole entry): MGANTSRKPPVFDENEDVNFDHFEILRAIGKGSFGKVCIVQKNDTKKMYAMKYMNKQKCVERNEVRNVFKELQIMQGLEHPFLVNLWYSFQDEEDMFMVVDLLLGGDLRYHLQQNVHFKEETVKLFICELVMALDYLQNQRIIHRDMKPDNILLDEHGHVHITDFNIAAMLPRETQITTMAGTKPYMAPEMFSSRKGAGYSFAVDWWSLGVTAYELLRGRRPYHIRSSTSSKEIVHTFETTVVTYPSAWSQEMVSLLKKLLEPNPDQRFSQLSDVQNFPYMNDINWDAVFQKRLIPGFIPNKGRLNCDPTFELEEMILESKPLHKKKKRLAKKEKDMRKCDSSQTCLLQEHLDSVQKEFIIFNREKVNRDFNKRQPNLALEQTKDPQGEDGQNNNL

Sequence of Casein kinase II subunit alpha (Homo sapiens) (P68400 whole entry, looked up): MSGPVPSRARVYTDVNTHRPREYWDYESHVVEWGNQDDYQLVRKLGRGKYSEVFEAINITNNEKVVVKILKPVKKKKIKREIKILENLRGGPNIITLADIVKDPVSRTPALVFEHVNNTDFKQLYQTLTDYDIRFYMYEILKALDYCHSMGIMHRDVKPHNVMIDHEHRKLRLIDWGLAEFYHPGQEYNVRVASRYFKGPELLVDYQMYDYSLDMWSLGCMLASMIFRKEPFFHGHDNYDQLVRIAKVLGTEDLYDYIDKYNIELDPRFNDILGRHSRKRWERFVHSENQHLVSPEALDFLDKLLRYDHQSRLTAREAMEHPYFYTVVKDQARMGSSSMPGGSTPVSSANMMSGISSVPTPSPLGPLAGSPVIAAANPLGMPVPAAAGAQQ
Sequence of Serine/threonine-protein kinase MRCK alpha (Homo sapiens) (Q5VT25 whole entry): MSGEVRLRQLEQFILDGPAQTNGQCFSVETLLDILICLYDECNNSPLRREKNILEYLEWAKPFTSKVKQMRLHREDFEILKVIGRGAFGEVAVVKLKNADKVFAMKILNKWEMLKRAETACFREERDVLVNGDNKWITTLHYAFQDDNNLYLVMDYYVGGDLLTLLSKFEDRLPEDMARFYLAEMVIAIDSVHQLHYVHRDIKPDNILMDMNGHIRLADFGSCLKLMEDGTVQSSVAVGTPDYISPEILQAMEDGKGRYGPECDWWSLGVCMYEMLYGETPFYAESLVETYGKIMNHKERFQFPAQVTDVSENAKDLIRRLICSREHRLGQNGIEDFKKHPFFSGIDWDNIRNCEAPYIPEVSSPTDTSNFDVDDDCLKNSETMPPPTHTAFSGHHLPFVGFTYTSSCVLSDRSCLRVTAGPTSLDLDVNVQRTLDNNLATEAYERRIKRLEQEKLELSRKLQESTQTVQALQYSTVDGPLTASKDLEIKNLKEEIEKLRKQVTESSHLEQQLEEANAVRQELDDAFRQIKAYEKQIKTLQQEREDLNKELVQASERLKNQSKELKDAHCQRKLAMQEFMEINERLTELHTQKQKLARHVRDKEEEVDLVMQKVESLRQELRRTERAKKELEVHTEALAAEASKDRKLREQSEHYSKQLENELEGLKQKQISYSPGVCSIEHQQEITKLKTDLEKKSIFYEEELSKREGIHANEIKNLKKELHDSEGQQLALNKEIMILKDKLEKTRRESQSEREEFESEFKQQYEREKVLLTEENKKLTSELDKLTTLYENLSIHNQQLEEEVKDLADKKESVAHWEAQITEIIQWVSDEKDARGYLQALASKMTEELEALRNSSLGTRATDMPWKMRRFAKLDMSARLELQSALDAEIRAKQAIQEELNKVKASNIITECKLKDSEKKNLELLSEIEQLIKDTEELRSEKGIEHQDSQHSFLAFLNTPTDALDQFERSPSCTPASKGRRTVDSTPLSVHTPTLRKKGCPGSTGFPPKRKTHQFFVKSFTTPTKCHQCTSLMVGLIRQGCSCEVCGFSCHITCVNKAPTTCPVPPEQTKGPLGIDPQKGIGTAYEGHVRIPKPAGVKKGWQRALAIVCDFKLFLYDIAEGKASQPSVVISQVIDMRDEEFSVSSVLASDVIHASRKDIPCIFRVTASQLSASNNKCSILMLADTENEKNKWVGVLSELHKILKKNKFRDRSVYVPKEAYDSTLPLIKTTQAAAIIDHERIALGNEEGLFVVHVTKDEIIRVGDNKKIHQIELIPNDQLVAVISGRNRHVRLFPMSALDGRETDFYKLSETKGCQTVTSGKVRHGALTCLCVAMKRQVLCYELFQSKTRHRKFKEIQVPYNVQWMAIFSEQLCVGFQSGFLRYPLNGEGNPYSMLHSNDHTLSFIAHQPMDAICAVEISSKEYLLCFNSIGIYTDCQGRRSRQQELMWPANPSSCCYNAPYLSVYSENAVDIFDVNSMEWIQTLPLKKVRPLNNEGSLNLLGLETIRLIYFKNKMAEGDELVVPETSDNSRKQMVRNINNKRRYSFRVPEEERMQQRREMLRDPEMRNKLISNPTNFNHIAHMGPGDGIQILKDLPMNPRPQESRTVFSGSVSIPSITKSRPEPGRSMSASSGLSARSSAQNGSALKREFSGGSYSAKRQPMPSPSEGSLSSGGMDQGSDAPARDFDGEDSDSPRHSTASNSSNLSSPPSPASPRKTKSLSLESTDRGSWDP
Sequence of Hepatocyte growth factor receptor (Homo sapiens) (P08581 whole entry): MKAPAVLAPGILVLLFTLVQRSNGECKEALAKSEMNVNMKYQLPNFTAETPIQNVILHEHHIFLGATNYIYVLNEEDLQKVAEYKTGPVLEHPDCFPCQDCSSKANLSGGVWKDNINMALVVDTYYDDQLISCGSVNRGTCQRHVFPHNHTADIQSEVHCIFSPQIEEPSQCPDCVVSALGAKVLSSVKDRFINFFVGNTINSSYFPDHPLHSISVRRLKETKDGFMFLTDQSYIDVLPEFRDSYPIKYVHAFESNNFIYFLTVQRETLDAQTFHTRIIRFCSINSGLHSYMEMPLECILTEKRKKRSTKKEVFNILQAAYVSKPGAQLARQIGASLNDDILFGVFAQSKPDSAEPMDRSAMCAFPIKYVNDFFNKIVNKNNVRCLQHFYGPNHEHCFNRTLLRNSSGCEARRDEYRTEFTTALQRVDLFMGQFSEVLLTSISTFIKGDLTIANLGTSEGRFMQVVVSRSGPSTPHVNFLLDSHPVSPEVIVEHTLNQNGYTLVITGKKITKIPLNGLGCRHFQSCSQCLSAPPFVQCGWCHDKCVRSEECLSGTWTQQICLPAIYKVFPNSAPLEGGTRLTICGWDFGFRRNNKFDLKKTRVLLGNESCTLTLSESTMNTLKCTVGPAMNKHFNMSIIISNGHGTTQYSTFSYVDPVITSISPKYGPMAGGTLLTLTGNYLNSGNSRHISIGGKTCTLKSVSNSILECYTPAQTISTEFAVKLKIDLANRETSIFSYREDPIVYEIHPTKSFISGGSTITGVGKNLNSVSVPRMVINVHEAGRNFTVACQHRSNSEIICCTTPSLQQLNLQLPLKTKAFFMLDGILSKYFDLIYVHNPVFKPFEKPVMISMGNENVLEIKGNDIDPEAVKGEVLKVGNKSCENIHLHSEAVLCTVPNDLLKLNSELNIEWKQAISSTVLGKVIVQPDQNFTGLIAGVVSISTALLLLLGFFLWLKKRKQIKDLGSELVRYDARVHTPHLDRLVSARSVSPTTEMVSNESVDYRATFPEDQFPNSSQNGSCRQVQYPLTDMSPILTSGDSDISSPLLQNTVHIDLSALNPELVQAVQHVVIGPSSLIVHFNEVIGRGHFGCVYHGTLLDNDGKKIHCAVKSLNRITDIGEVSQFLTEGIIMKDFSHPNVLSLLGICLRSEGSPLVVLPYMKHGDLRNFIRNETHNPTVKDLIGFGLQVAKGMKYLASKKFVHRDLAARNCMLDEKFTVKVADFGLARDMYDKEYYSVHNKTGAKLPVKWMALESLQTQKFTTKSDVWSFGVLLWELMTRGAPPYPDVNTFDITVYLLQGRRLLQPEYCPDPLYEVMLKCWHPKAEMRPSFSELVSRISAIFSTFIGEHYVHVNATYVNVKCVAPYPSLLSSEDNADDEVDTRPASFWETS
Sequence of Aurora kinase B (Homo sapiens) (Q96GD4 whole entry): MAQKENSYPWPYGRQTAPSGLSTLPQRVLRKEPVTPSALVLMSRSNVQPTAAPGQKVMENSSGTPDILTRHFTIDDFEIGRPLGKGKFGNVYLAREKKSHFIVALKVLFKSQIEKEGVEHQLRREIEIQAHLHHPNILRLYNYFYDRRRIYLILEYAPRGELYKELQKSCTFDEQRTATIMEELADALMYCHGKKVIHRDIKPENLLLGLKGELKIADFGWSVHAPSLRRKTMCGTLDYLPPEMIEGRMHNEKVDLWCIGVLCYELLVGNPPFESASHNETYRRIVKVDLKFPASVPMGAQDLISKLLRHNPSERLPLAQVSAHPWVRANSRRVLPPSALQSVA
Sequence of Serine/threonine-protein kinase B-raf (Homo sapiens), P15056 [V600E] (P15056 whole entry V600E): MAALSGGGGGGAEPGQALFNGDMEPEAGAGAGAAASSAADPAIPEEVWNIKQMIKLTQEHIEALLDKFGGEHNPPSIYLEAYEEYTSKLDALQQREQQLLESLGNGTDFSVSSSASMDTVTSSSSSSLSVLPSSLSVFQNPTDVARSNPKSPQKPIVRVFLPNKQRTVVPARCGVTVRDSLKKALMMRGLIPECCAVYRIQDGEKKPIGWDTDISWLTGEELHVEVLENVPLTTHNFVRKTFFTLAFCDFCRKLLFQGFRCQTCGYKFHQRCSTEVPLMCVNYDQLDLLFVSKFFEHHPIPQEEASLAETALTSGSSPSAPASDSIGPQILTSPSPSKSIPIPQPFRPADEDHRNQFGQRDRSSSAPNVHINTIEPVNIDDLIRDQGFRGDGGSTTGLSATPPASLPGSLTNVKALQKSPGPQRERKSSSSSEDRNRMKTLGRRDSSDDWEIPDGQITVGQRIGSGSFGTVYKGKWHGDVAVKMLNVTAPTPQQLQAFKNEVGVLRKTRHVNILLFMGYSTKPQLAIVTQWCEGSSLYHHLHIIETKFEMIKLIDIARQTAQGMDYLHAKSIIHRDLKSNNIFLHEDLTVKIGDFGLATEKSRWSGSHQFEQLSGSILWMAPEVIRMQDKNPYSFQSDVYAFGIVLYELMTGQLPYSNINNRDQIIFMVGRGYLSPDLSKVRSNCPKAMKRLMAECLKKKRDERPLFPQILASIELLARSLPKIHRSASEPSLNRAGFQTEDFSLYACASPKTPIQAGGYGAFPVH

## COc1cc2ncnc(N[C@H](C)c3cccc4ccccc34)c2cc1OC
[1]
  Activity: 96%
[2]
  Activity: 100%
[3]
  Activity: 73%
[4]
  Activity: 14%
[5]
  Activity: 92%
[6]
  Activity: 96%
[7]
  Activity: 100%
[8]
  Activity: 100%
[9]
  Activity: 75%
[10]
  Activity: 31%
[11]
  Activity: 61%
